According to patent US10933038B2, “Use of (benzenesulfonamido) benzamide compounds for inhibiting liver fibrosis” (Hebei Medfaith Pharmaceutical Technology Co., Ltd., priority 2015, dated 2021):

Legend:
[1] = tested on: COL1A1 promoter; assay: dual-luciferase reporter assay of COL1A1 promoter activity in LX2 cells; type: cell-based, human; conditions: TGF-β1 2 ng/ml, 1, 5 and 10 μmol/L, 24 h
Protocol: At 37° C., 5% CO2, human hepatic stellate cells LX2 were cultured in DMEM medium containing 10% fetal bovine serum (Gibco). After the cells reached a confluence of about 95%, the cells were spread onto a 96-well plate at 2×10^4 cells per well. After the cells reached a confluence of about 90%, the cells were subjected to serum-free culture in DMEM medium (Gibco) containing no fetal bovine serum for 24 h. […] The cells were further cultured for 24 h. In accordance with the operations described in the instruction of Dual-Glo™ Luciferase Assay System, the medium was discarded, and the cells were washed with PBS once. Cells were lysed by the addition of 1×PLB (20 μL/well) (within 15 min), luciferase substrate (50 μL/well) was added for assay, and a stop solution (50 μL/well) was added for assay.

[2] = tested on: TGF-β1-induced LX2 cells; assay: real-time PCR assay in TGF-β1-induced LX2 cells; type: cell-based, human; conditions: TGF-β1 (2 ng/ml)-induced LX2 cells, 1, 5 and 10 μmmol/L, 24 h
Protocol: (§1) In DMEM (Gibco) medium containing 10% fetal bovine serum, LX2 cells were cultured at 37° C., 5% CO2. The cells were spread on a 6-well plate at 1×10^5 cells per well. After culture for 24 h, the original medium was discarded, the cells were washed with PBS once, and DMEM (Gibco) medium without 10% fetal bovine serum was added. […] After further culture for 24 h, the samples were taken.
In accordance with the TRizol method, the total RNA in LX2 cells were extracted, and in accordance with the operations described in the instruction of Roche Transcriptor First Strand cDNA Synthesis Kit, the total RNA of LX2 was reverse transcribed into cDNA. The cDNA obtained, sterile water, Roche FastStart Universal Probe Master (Rox) and ABI TaqMan probes (COL1A1, TGF-β1, MMP2) were used to prepare a 20 μL reaction system, which was analyzed by ABI 7500 Fast Real-Time PCR System.

[3] = tested on: TGF-β1-induced LX2 cells; assay: Western blot assay in TGF-β1-induced LX2 cells; type: cell-based, human; conditions: TGF-β1 (2 ng/ml)-induced LX2 cells, 1, 5 and 10 μmmol/L, 24 h
Protocol: as §1
Proteins in LX2 cells were extracted with RAPI lysis solution (containing 1% PMSF), and the protein concentration was determined by BCA method. The sample was loaded at 20 μg/20 μL, subjected to polyacrylamide gel electrophoresis, transferred to a membrane, blocked with 5% skim milk, incubated with a primary antibody, washed with PBST, incubated with a secondary antibody, and imaged with ChemiImager 5500 imaging system.

[4] = tested on: Kunming mice; assay: safety in Kunming mice, single intragastric dose, 14 days observation; type: in vivo; conditions: 50-2000 mg/kg; for change in body weight (relative body weight Day 14/Day 1): 14 days after administration; for death / signs of intoxication: 14 days observation
Protocol: In the example, the compounds 16-4 and 17-15 were tested for their safety in Kunming mice.
Kunming mice (with a body weight of 18-22 g) were randomly divided into control group, 16-4 administration group, and 17-15 administration group, with 4 mice for each group, administered at a dose of 0 mg/kg, 50 mg/kg, 500 mg/kg, 1000 mg/kg and 2000 mg/kg. At the first day of experiment, drugs were intragastrically administered to 16-4 administration group and 17-15 administration group, and normal saline was administered to control group. The body weight and physical conditions of mice (for example, being short of breath or not, having bleeding spots in skin or not, etc.) and whether mice died or not were recorded every day. After observation for 14 days, the mice were sacrificed.

[5] = tested on: BDL model rat; assay: Masson staining of liver tissue of BDL rats; type: in vivo; conditions: 100 mg/kg i.p., 14 days
Protocol: (§2) SD male rats (with a body weight of 180-200 g) were randomly divided into sham operation group, BDL model group and 16-4 administration group, wherein sham operation group included 6 rats, BDL model group included 8 rats, and 16-4 administration group included 6 rats. Animals were fasted for 12 hours before surgery. After anesthetization with isoflurane, the abdomen of rat was opened under aseptic conditions, the liver was lifted, the duodenum was pulled aside, and 2-3 cm common bile duct was separate. Ligations were performed twice with silk thread No. 000 at the place proximal to duodenum and the place proximal to porta hepatis, respectively. The common bile duct was cut off at the middle of the two ligation places. After the liver was put back, the cut was sutured. In sham operation group, the abdomen was just opened, and then sutured. After recovery from anesthesia, the animals were subjected to normal diet, with free access to water. 2 days after surgery, the compound 16-4 (100 mg/kg) was intraperitoneally injected to 16-4 administration group, and normal saline was intraperitoneally injected to sham operation group and BDL model group, once a day. After administration for 14 days, samples such as urine, blood, bile, liver, kidney and ileum were collected from the animals after being fasted for 12 hours. […]

[6] = tested on: BDL model rat; assay: hydroxyproline content in liver tissue of BDL rats; type: in vivo; conditions: 100 mg/kg i.p., 14 days
Protocol: as §2, with “water.” for “water. 2 days after surgery, the compound 16-4 (100 mg/kg) was intraperitoneally injected to 16-4 administration group, and normal saline was intraperitoneally injected to sham operation group and BDL model group, once a day. After administration for 14 days, samples such as urine, blood, bile, liver, kidney and ileum were collected from the animals after being fasted for 12 hours.”
(2) Hydroxyproline is specific to collagen fibrils, and the content of hydroxyproline can reflect the extent of liver fibrosis. Liver tissue samples (80-100 mg) were taken from the rats of each group in Example 6, and in accordance with the instruction of Hydroxyproline Assay Kit (purchased from Nanjing Jiancheng Bioengineering Institute), the content of hydroxyproline in the liver tissues was determined.

[7] = tested on: BDL model rat; assay: Western blot of proteins associated with liver fibrosis in liver tissue of BDL rats; type: in vivo; conditions: 100 mg/kg i.p., 14 days
Protocol: as §2, with “day.” for “day. After administration for 14 days, samples such as urine, blood, bile, liver, kidney and ileum were collected from the animals after being fasted for 12 hours.”
Liver tissues (80-100 mg) were taken from the rats of each group in Example 6, and 1 mL RAPI lysis solution (containing 1% PMSF) was added. […] The supernatant was taken, and the protein concentration was determined by BCA method. […]

[8] = tested on: BDL model rat; assay: serum liver function in BDL model rat; type: in vivo; conditions: 100 mg/kg i.p. once a day for 14 days
Protocol: (§3) SD male rats (with a body weight of 180-200 g) were randomly divided into sham operation group, BDL model group and 16-4 administration group, wherein sham operation group included 6 rats, BDL model group included 8 rats, and 16-4 administration group included 6 rats. Animals were fasted for 12 hours before surgery. After anesthetization with isoflurane, the abdomen of rat was opened under aseptic conditions, the liver was lifted, the duodenum was pulled aside, and 2-3 cm common bile duct was separate. Ligations were performed twice with silk thread No. 000 at the place proximal to duodenum and the place proximal to porta hepatis, respectively. The common bile duct was cut off at the middle of the two ligation places. After the liver was put back, the cut was sutured. In sham operation group, the abdomen was just opened, and then sutured. After recovery from anesthesia, the animals were subjected to normal diet, with free access to water. 2 days after surgery, the compound 16-4 (100 mg/kg) was intraperitoneally injected to 16-4 administration group, and normal saline was intraperitoneally injected to sham operation group and BDL model group, once a day. After administration for 14 days, samples such as urine, blood, bile, liver, kidney and ileum were collected from the animals after being fasted for 12 hours.
Blood samples were taken from rats of each group in Example 6, and the rats were fasted for 12 h before taking samples. The rats were anesthetized with 10% chloral hydrate, and blood was collected via aorta ventralis, on standing at room temperature for 1 h, and centrifuged at 3000 rpm for 5 min. The serum was tested for serum biochemical indexes.

[9] = tested on: ANIT-induced liver injury; assay: alpha-naphthylisothiocyanate (ANIT)-induced liver injury model, HE staining; type: in vivo, mouse; conditions: 400 mg/kg intragastric, ANIT 75 mg/kg, 48 h after induction
Protocol: After further administration for 2 days (i.e. after induction with ANIT for 48 h), liver tissues were harvested, and subjected to pathological section and HE staining.

[10] = tested on: BDL model rat; assay: real-time PCR of genes associated with liver fibrosis in liver tissue of BDL rats; type: in vivo; conditions: 100 mg/kg i.p., 14 days
Protocol: as §2, with “water.” for “water. 2 days after surgery, the compound 16-4 (100 mg/kg) was intraperitoneally injected to 16-4 administration group, and normal saline was intraperitoneally injected to sham operation group and BDL model group, once a day. After administration for 14 days, samples such as urine, blood, bile, liver, kidney and ileum were collected from the animals after being fasted for 12 hours.”
Liver tissues (80-100 mg) were taken from the rats of each group in Example 6, and 1 mL TRizol was added. […] The cDNA obtained, sterile water, Roche FastStart Universal Probe Master (Rox) and ABI TaqMan probes were used to prepare a 20 μL reaction system, which was analyzed by ABI 7500 Fast Real-Time PCR System.

[11] = tested on: BDL model rat; assay: HE staining of liver tissue of BDL rats; type: in vivo; conditions: 100 mg/kg i.p., 14 days
Protocol: as §3
The liver tissue samples were taken from rats of each group in Example 6, and the rats were fasted for 12 hours before taking samples. The rats were anesthetized with 10% chloral hydrate and the liver tissue was taken. The hepatic lobar tissue blocks were cut off and fixed in 4% neutral formaldehyde solution. By carrying out the steps such as dehydration, paraffin embedding, slicing and baking, paraffin slices were made. Hematoxylin-eosin (HE) staining solution was used for staining, and changes in pathological structure of rat liver tissue were observed.

SMILES | activity of COL1A1 promoter (relative luciferase activity) [1] | expression levels of mRNA of COL1A1, TGF-β1 and MMP2 [2] | expression of COL1A1, TGF-β1, MMP2 and α-SMA protein [3] | change in body weight (relative body weight Day 14/Day 1) [4] | death [4] | signs of intoxication [4] | fibrosis of liver tissues (Masson staining) [5] | content of hydroxyproline in rat liver tissues [6] | expression of COL1A1, TGF-β1, MMP2 and α-SMA protein [7] | liver function of BDL rats [8] | alanine aminotransferase ALT ([8]; serum, BDL rat, n = 6) [U/L] | alkaline phosphatase ALP ([8]; serum, BDL rat, n = 6) [U/L] | γ-glutamyltransferase γ-GGT ([8]; serum, BDL rat, n = 6) [U/L] | liver injury (HE staining of liver tissue slices) compared to ANIT-induced group [9] | expression of genes associated with liver fibrosis (COL1A1, TGF-β1, MMP2, α-SMA (ACTA2), TIMP1, TIMP2 and SPP1) [10] | bile duct proliferation [11] | pathological structure of the liver tissues [11] | tissue necrosis [11]
O=C(Nc1ccc(Cl)c(Cl)c1)c1ccccc1NS(=O)(=O)c1cccc(OC(F)(F)F)c1 [17-15, N-(3,4-dichlorophenyl)-2-(3-trifluoromethoxybenzenesulfonamido) benzamide] | inhibit the activity of COL1A1 promoter in a dose-dependent manner | significantly inhibit | significantly inhibit | no significant decrease in body weight | no death occurred | no signs of intoxication were observed |  |  |  |  |  |  |  |  |  |  |  | 
O=C(Nc1cc(Cl)c(Cl)c(Cl)c1)c1ccccc1NS(=O)(=O)c1cccc([N+](=O)[O-])c1 [16-4, N-(3,4,5-trichlorophenyl)-2-(3-nitrobenzenesulfonamido) benzamide] | inhibit the activity of COL1A1 promoter in a dose-dependent manner | significantly inhibit | significantly inhibit | no significant decrease in body weight | no death occurred | no signs of intoxication were observed | significantly inhibit the fibrosis of liver tissues | significantly reduce | significantly inhibit | could improve the liver function | 68.20 ± 11.86 | 383.60 ± 56.45 | 27.40 ± 10.26 | had the liver injury improved | significantly reduce | significantly inhibited bile duct proliferation | significantly improve | significantly reduced tissue necrosis
